Measured values: PMC12423301, “Astrocytic monoamine oxidase B (MAOB)–gamma-aminobutyric acid (GABA) axis as a molecular brake on repair following spinal cord injury” (Signal Transduction and Targeted Therapy, 2025)
“Also recorded” adds a separate entry of the source.

System: rat SCI model
Experiment: Immunohistochemistry of injured rat spinal cord
Format: in vivo, Sprague-Dawley (SD) rats
Procedure: Immunohistochemistry was performed as previously described.[70] The tissue sections were blocked and treated with primary antibodies. After overnight incubation at 4 °C, species-specific fluorescent secondary antibodies were applied for visualization. The tissue sections were then stained with 4’,6-diamidino-2-phenylindole (DAPI) during mounting. This protocol allows a detailed assessment of various cellular markers involved in SCI and recovery processes.
The secondary antibodies used included FITC-donkey anti-mouse IgG (H + L) (1:150, 715-095-151), Cy^TM3-donkey anti-mouse IgG (H + L) (1:600, 715-165-151), FITC-donkey anti-rabbit IgG (H + L) (1:150, 711-095-152), Alexa Fluor 594-donkey anti-rabbit IgG (H + L) (1:500, 711-585-152), Alexa Fluor 647-donkey anti-rabbit IgG (H + L) (1:500, 711-605-152), Cy^TM3-donkey anti-chicken IgG (H + L) (1:600, 703-165-155), DyLightTM405-donkey anti-chicken IgY + + (H + L) (1:600, 703-476-155), Alexa Fluor 488-donkey anti-chicken IgY (IgG) (H + L) (1:500, 703-545-155), Alexa Fluor 594-donkey anti-chicken IgY (IgG) (H + L) (1:500, 703-585-155), Alexa Fluor 488-donkey anti-goat IgG (H + L) (1:500, 705-545-003), and Alexa Fluor 647-donkey anti-goat IgG (H + L) (1:300, 705-606-147). All secondary antibodies were purchased from Jackson ImmunoResearch.
The fluorescence images were observed via confocal laser scanning microscopy (LSM700 or LSM710, Carl Zeiss), and analyzed via the ImageJ (NIH) software. For visualizing the mCh-positive signals of proliferating or proliferated cells, Z-stack images acquired in 1-μm steps were processed for 3D surface rendering of mCh-positive signals using IMARIS software (version 9.0.1, Oxford Instruments).

[1] = SCI+KDS 10mpk, 20mpk, and 30mpk vs SCI+V, PI 10w
[2] = SCI+KDS 1d/Re vs SCI+V and SCI+KDS 1d/No, PI 10w

SMILES: CS(=O)(=O)O.C[C@H](NCc1ccc(-c2ccc(C(F)(F)F)cc2)cc1)C(N)=O [KDS2010, (S)-2-(((4’-Trifluoromethylbiphenyl-4-yl)methyl)amino)propanamide methane-sulfonate]
- GFAP intensity (KDS2010 treatment compared with SCI + V): significantly reduced
- intensity of TrkB in neurons, oligodendrocytes, and astrocytes (MAOB inhibition from the subacute phase, PI 10w): significantly increased
- neurons positive for both Ki67 and NeuN (SCI + KDS 2w vs SCI + V, PI 10w): significantly increased; also recorded: significant increase
- intensity of GABA in GFAP-positive astrocytes (SCI + KDS 2w, 10 mpk, PI 10w): significantly recovered; also recorded: significantly attenuated
- MAP2 intensity (SCI + KDS 2w, PI 10w): fully restored
- MBP intensity (SCI + KDS 2w, PI 10w): significant recovery
- expression of astrocytic GFAP and MAOB (SCI + KDS 2w, PI 10w): returned to normal levels
- intensity of proBDNF in astrocytes and neurons (SCI + KDS 2w, PI 10w): significantly increased
- number of NeuN-positive neurons (SCI + KDS 2w, PI 10w): significant recovery
- oligodendrocytes positive for both Ki67 and MBP (SCI + KDS 2w, PI 10w): substantial population; also recorded: significantly increased
- intensity of GABA and astrocytic DAO (SCI+KDS 6w): significantly reduced
- intensity of proBDNF (SCI+KDS 6w vs SCI+V): significantly increased
- astrocytic GFAP and MAOB expression (SCI+KDS 6w vs SCI+V, PI 14w): significantly decreased
- intensity of MAP2 (SCI+KDS 6w vs SCI+V, PI 14w): significant increase
- intensity of MBP-positive TrkB (SCI+KDS 6w vs SCI+V, PI 14w): significantly increased
- intensities of GFAP and GABA [1]: significantly reduced
- intensity of MAP2 [1]: significant increase
- intensity of MBP [1]: significant recovery
- intensity of MBP-positive TrkB [1]: significant recovery
- intensity of astrocytic DAO [1]: significantly decreased
- intensity of proBDNF [1]: significantly increased
- GFAP levels (SCI+KDS 1d/No): persistently high GFAP levels
- alternative diamine oxidase (DAO) pathway (SCI+KDS 1d/No): activated
- intensity of GABA and astrocytic DAO (SCI+KDS 1d/Re): significantly reduced
- intensity of proBDNF (SCI+KDS 1d/Re vs SCI+V and SCI+KDS 1d/No): significantly increased
- astrocytic GFAP and MAOB expression [2]: significantly decreased
- intensity of MAP2 [2]: significant increase
- astrocytic MAOB expression (all doses (10mpk, 20mpk, 30mpk) vs SCI+V, PI 10w): significant reduction
- expression of CSPGs (neurocan, phosphacan) (rat SCI, KDS2010 treatment): notably reduced
